# Columns and labels:
# 32D-kit cells = assay: Cell death assay (Trypan blue exclusion) in 32D-kit cells; type: cell-based
# Procedure: Figures 2A and 2B show induction of cell death in 32D-kit or p815 cells with SLF plus Ca^2+ influx blockers. 32D-kit (Figure 2A) or p815 (Figure 2B) cells were incubated with either SLF (solid bars) or IL-3 (striped bars) plus the indicated concentration of Ca^2+ influx blocker. Cell death was determined by Trypan Blue exclusion after 18 hours in culture.
# 32D-kit cells were incubated for 18 hours with SLF and 5µM econazole and oleic acid (solid bars), or with SLF and 5µM econazole and elaidic acid (hatched bars), or IL-3 and 5 µM econazole and oleic acid (stippled bars). The proportion of dead cells was determined by Trypan Blue exclusion.
# (§1) Figures 6A and 6B show the effect of ionomycin on apoptosis induced by SLF and Ca^2+ influx blacker. In Figure 6A, 32D-kit cells were incubated for 18 hours with 5µM econazole and the indicated amounts of ionomycin in the presence of either SLF (circles) or IL-3 (squares). In Figure 6B, 32D-kit-Bcl-2 cells were incubated for 18 hours with 5µM econazole and the indicated amounts of ionomycin in the presence of either SLF (circles) or IL-3 (squares). The proportion of dead cells was determined by Trypan Blue exclusion.
# (§2) In additional cultures, IL-3 alone or no factor was added and cell viability was similarly tested. The effect on cell viability of adding 25 or 250 µM YVAD-CHO was also evaluated in separate cultures in which no additional factors were added.
# 32D-kit cells were incubated with either SLF in the absence of YVAD-CHO (circles), or with SLF in the presence of 25 µM YVAD-CHO. (triangles), or IL-3 (squares) with the indicated amounts of econazole. The proportion of dead cells was evaluated by Trypan Blue exclusion after 18 hours in culture
# (§3) Cells. Bone marrow derived mast cells (BMMC) were generated as described previously (Berger et al., 1994). They were cultured in OPTI-MEM (Gibco, Burlington, ON) supplemented with 10% heat-inactivated FBS and 2% WEHI-3 supernatant as a source of IL-3. 32D-kit cells (gift from Dr. Mark Minden, Ontario Cancer Institute) are an IL-3-dependent myelomonocytic cell line expressing c-kit (Hu et al., 1995). 32D-kit cells were grown in RPMI (Gibco) supplemented with 10% heat-inactivated FBS, 2% WEHI-3 supematant, and 1 mg/ml G418 (Gibco). The p815 cell line is a murine mastocytoma cell line. P815 cells were grown in RPMI supplemented with 10% heat-inactivated FBS. Bcl-2 gp+e NIH 3T3 packaging cells were grown in Dulbecco's modified Eagle's medium (DMEM - Gibco) and supplemented with 10% FBS and 2 µg/ml puromycin (Sigma, St. Louis, Mo). All cell cultures also contained 55µM β-mercaptoethanol and antibiotics (both Sigma). SK-BR3, MDA-MB231 and MCF-7 cells were obtained from ATCC. SK-BR3 and MDA-MB231 cells were cultured in RPMI medium supplemented with 10% heat inactivated fetal bovine serum. MCF-7 cells were cultured in DMEM medium supplemented with 10% heat inactivated fetal bovine serum and 10 µg/ml human insulin (Sigma).
# (§4) Cell death assays. 2.5 X 10^4 BMMCs, 32D-kit or P815 cells were placed in 96-well flat bottom plates in a volume of 0.1 ml RPMI containing 0.5% FBS. Cells were supplemented with either SLF, Substance P or IL3 plus Ca^2+ channel blocker. In the case of adding IgE, cells were incubated with 10 µg/ml SPE-7 for 45 minutes at 4°C followed by 3 washes with RPMI, 0.5% FBS before plating in 96 well plates and adding 100 ng/ml DNP-HSA. The proportion of dead cells was determined after 18 or 24 hours in culture by counting cells that could or could not exclude Trypan blue.
# 32D-kit leukemia cells = assay: 32D-kit leukemia in mice, SLF intravenously: G418-resistant spleen colonies in agar; type: in vivo
# Procedure: Mice were inoculated intravenously with 1 X 10^7 G418-resistant 32D-kit cells. Between 3 and 5 weeks following the inoculation (Experiments 1 & 3; 5 weeks, experiment 2; 3 weeks), mice were given 100mg/kg ketotifen by oral gavage. Four hours following the ketotifen treatment, mice were injected with 15µg SLF intravenously. Two hours later the mice were given a further 100mg/kg ketotifen p.o. The following day, spleens were removed and assayed for the presence of leukemic cells by plating cells in 0.3% agar in growth medium containing 20% WEHI-3 conditioned medium and 1 mg/ml G418 to limit detection to the G418-resistant leukemic cells. Seven days later, colonies were enumerated.
# (§5) Mice. For the in vivo 32D-kit experiments, mice were male C3H/ he mice 6 to 8 weeks old and obtained from Charles River Laboratories, Boston, Massachusetts. Mice were inoculated intravenously with 1 x 10^7 leukemic cells. Between 3 and 5 weeks following the inoculation, mice were given 100 mg/kg ketotifen (Sigma) in a volume of 0.4 ml water by oral gavage, Following the first ketotifen treatment, mice were injected intravenously or subcutaneously with 15 µg SLF in PBS. A second ketotifen treatment followed administration of SLF.
# In order to determine the efficacy of the combination of a Ca^2+ influx blocker with an activating signal in vivo, mice inoculated with factor-dependent and G418-resistant 32D-kit leukemia cells were treated with a combination of ketotifen and SLF. In one set of experiments, spleen cells were removed and assayed for the presence of leukemic cells by plating cells in agar in growth medium containing 20% WEHI-3 conditioned medium and 1mg/ml G418 to limit detection to the G418-resistant leukemic cells. […] The number of G418-resistant colonies detected in animals that were injected with SLF only tended to be higher than those not receiving the factor, varying between 65 and 31,000 with an arithmetic average of 7,399, and a geometric mean of 1,545 colonies/spleen. […]
# [1] = test system: all cells capable of forming colonies in agar in response to IL-3; assay: 32D-kit leukemia in mice, SLF intravenously: all IL-3-dependent spleen colonies in agar; type: in vivo; conditions: ketotifen 100mg/kg p.o. twice, SLF 15µg intravenously; leukemic as well as normal cells
# Procedure: Figure 11B is similar to Figure 11A, but in this case spleen cells were assayed for the presence of all cells capable of forming colonies in agar in response to IL-3, to include leukemic as well as normal cells.
# as §5
# In order to determine the efficacy of the combination of a Ca^2+ influx blocker with an activating signal in vivo, mice inoculated with factor-dependent and G418-resistant 32D-kit leukemia cells were treated with a combination of ketotifen and SLF. […] The number of G418-resistant colonies detected in animals that were injected with SLF only tended to be higher than those not receiving the factor, varying between 65 and 31,000 with an arithmetic average of 7,399, and a geometric mean of 1,545 colonies/spleen. […]
# [2] = test system: Bone marrow derived mast cells (BMMC); assay: Cell death assay (Trypan blue exclusion) in BMMC; type: cell-based; conditions: 24 hours
# Procedure: Cytotoxicity assays were performed as described in Materials and Methods. In Figures 1A to 1C, BMMCs were incubated with either SLF (500ng/ml in all cases) (circles) or IL-3 (25% WEHI-3 conditioned medium in all cases) (squares) with the indicated amounts of ketotifen (Figure 1A), econazole (Figure 1B) or Ni^2+ (Figure 1C). In Figure 1D, BMMCs were incubated with IL-3, and the indicated amounts of SLF. Plotted circles also included 2.5mM Ni^2+ and plotted squares included no Ni^2+. In Figure 1E, BMMCs were coated with IgE anti-DNP monoclonal SPE-7, then incubated with IL-3 plus the indicated amounts of DNP-HSA (Ag), with 5µM econazole (circles) or without econazole (squares). In Figure 1F, BMMCs were incubated with IL-3 plus the indicated amounts of Substance P, with 5µM econazole (circles) or without econazole (squares). In all cases, the proportion of dead cells was determined after 24 hours in culture by counting cells that could or could not exclude Trypan blue. Error bars represent the standard error determined from triplicate measurements.
# as §3, §4
# MDA-MB-231 cells = assay: Cell death in autocrine stimulated MDA-MB-231 breast cancer cells; type: cell-based, human; conditions: 20µM econazole; YVAD-CHO 10 or 100 µM, ionomycin 0.1 nM to 1 µM, oleic acid 10 or 100 µM
# Procedure: Bar 1: control; Bar 2: 20µM econazole; Bar 3: 20µM econazole and 10µM YVAD-CHO (ICE inhibitor); Bar 4: 20µM econazole and 100 µM YVAD-CHO; Bar 5: 20µM econazole and 0.1 nM ionomycin (calcium ionophore); Bar 6: 20µM econazole and 10 nM ionomycin; Bar 7: 20µM econazole and 1 µM ionomycin; Bar 8: 20µM econazole and 10 µM oleic acid (PLC activation inhibitor); and Bar 9: 20µM econazole and 100 µM oleic acid.
# as §3
# The MDA-MB-231 cell line is a highly anaplastic carcinoma of the breast. it too is tumorigenic in nude mice but expresses only low levels of erbB2. However it is FGF^R positive and is stimulated in an autocrine fashion by bFGF (el Yazidi et al., 1995). Experiments were carried out to determine the susceptibility of MDA-MB-231 cells to a Ca^2+ influx blocker and the influence of oleic acid, ionomycin, and YVAD-CHO on induction of cell death by the blocker. The results are summarized together in Figure 9B.
# 32D-kit-Bcl-2 cells = assay: Cell death assay (Trypan blue exclusion) in Bcl-2 over-expressing 32D-kit cells; type: cell-based; conditions: 5µM econazole, 18 hours, Figure 6B
# Procedure: as §1, §2
# Generation of Bcl-2 over-expressing 32D-kit cells. gp + e bcl-2 retroviral producer cells were a gift from Dr. Y. Ben-David (Toronto) and contain an LXSN-based retroviral vector expressing genes for both puromycin resistance and murine bcl-2. For infection, a confluent layer of gp + e packaging cells were co-cultured with 32D-kit cells for 24 hours. Non-adherent 32D-kit cells were then removed, cultured for 48 hours and then selected for bcl-2 over-expressing cells in the presence of 2µg/ml puromycin.
# as §4
# [3] = SLF and 5µM econazole, 18 hours
# [4] = ketotifen 100mg/kg p.o. twice, SLF 15µg intravenously, spleens next day
# [5] = co-incubated with SLF (500ng/ml), Figures 1A-C
# [6] = stimulated with IgE plus antigen (DNP-HSA), with IL-3, 5µM econazole in Figure 1E
compound,measurement,setting,value
"CCCCCCCC/C=C/CCCCCCCC(=O)O [elaidic acid, trans-9-octadecenoic acid]",rescue/protection from cell death induced by SLF and Ca^2+ influx blocker,32D-kit cells; [3],not
CN1CCC(=C2c3ccccc3CC(=O)c3sccc32)CC1 [ketotifen],activity on the leukemic cells in vivo,32D-kit leukemia cells; SLF intravenously,little activity
same,"G418-resistant colonies, arithmetic average",32D-kit leukemia cells; [4],"5,502 colonies/spleen"
same,"G418-resistant colonies, geometric mean",32D-kit leukemia cells; [4],849 colonies/spleen
same,"IL-3-dependent colonies, arithmetic average",[1],"7,715 colonies/spleen"
same,"IL-3-dependent colonies, geometric mean",[1],"2,320 colonies/spleen"
same,cell death,[2]; [5],converted to a death signal
same,cell death,[2]; [6],combine with IgE receptor cross-linking to induce cell death
COc1ccc(CCN(C)CCCC(C#N)(c2ccc(OC)c(OC)c2)C(C)C)cc1OC (stereo not drawn) [verapamil],inducing cell death,"32D-kit cells; combined with SLF, not shown, cell type not stated",ineffective in inducing cell death
C[C@H](CCC(=O)O)C[C@H](C)C[C@H](C)C(=O)/C=C(\O)[C@H](C)C[C@H](C)C/C=C/[C@@H](C)[C@@H](O)[C@@H](C)[C@@H](O)C[C@@H]1CC[C@@](C)([C@H]2CC[C@@](C)([C@@H](C)O)O2)O1 [ionomycin],protection from death induced by the Ca^2+ influx blocker,MDA-MB-231 cells,can protect
same,cell death at higher levels of ionomycin,32D-kit-Bcl-2 cells,did not demonstrate significant cell death
same,protection from apoptosis by SLF plus blocker,32D-kit-Bcl-2 cells; low levels of ionomycin,similarly protected from apoptosis
same,cell death at higher concentrations of ionomycin,32D-kit cells; [3],restoration of cell death
same,rescue/protection from cell death induced by SLF and Ca^2+ influx blocker,32D-kit cells; [3],protects
same,concentration of maximal protection,"32D-kit cells; SLF and 5µM econazole, 18 hours, Figure 6A",10 nM
[Ni+2] [Ni^2+],cell death,[2]; [5],converted to a death signal
same,cell death,[2]; [6],combine with IgE receptor cross-linking to induce cell death
YVAD-CHO,protection from death induced by the Ca^2+ influx blocker,MDA-MB-231 cells,can protect
same,resistance to apoptosis induced by SLF plus econazole,"32D-kit cells; 25 µM YVAD-CHO, 18 hours, Figure 8",provides resistance
same,protection from apoptosis induced by factor withdrawal,"32D-kit cells; 25 or 250 µM YVAD-CHO, Figure 7B",fails to protect
same,protection from apoptosis induced by the topoisomerase inhibitor etoposide,32D-kit cells; not shown,protects
"CCCCCCCC/C=C\CCCCCCCC(=O)O [oleic acid, cis-9-octadecenoic acid]",protection from death induced by the Ca^2+ influx blocker,MDA-MB-231 cells,can protect
same,range of effectiveness (rescue from cell death),32D-kit cells; [3],1 to 100 µM
same,rescue/protection from cell death induced by SLF and Ca^2+ influx blocker,32D-kit cells; [3],rescued from cell death

# Reference: patent EP0873137B1, “COMPOSITIONS INCLUDING CALCIUM INFLUX BLOCKERS FOR INHIBITING CELL GROWTH” (The Wellesley Hospital Foundation, priority 1996, dated 1997)
